# Results as given in patent US9623031B2, “Compositions, methods and kits for treating cancer” (priority 2011, dated 2017).
# Entries after “also recorded” stand apart in the source; their conditions may differ.
# Assays:
# [1] = tested on: normal HSCs (MSCV-GFP^+HSC); assay: Effect on normal HSCs (MSCV-GFP+ HSC) treated ex vivo
# [2] = tested on: imatinib-resistant BCR-ABL(GFP)+ cells; assay: Imatinib-resistant BCR-ABL(GFP)+ LSCs treated ex vivo; format: cell-based, mouse; conditions: splenocytes after imatinib i.p. 1 wk and 1 week washout; 25 nM, 24 h
# Description: FIG. 8 is a graph showing that imatinib-resistant BCR-ABL(GFP)+ cells are targeted by Δ^12-PGJ3. […] The mice were followed for the development of leukemia. Mice that developed leukemia were euthanized and spleens were used as the source of LSCs.
# GFP+ LSCs were analyzed by flow cytometry.
# NF-κB = NF-κB gel shift in LPS-treated RAW264.7 macrophages; format: cell-based, mouse; conditions: 0.25 or 1.0 μM, then LPS 100 ng/mL 4 h
# Description: The effect of Δ^12-PGJ3 on NF-κB and PPAPγ was examined. RAW264.7 macrophages were pretreated with DMSO, Δ^12-PGJ3 at 0.25, or 1.0 μM and subsequently stimulated with 100 ng/mL E. coli LPS for 4 h. The nuclear extracts were prepared and the binding of NΦκB to a ^32P-labeled consensus double stranded oligonucleotide probe was examined using gel shift analysis. NS=non-specific band. Lanes 1-5 represent untreated, LPS alone, DMSO+LPS, Δ^12-PGJ3 (0.25 μM)+LPS, and Δ^12-PGJ3 (1 μM)+LPS, respectively. BCR-ABL LSCs were sorted from spleens, plated, and treated with PBS, 25 nM Δ^12-PGJ3, or 9,10-dihydro 15d-PGJ2 for 0, 2 or 6 h. The cells were harvested and nuclear extracts were prepared using standard techniques. Ten μg of nuclear protein was used from each sample for the gel-shift reaction. As a positive control for NF-κB, nuclear extract from LPS-treated murine (RAW264.7) macrophages was used. Anti-p50 Ab was used with this positive control for a supershift, and excess ‘cold’ probe was used with the positive control as a ‘cold competitor’. A Western blot analysis was performed of the above-mentioned nuclear extracts from BCR-ABL LSCs treated with PBS, Δ^12-PGJ3 or 9,10-dihydro-15d-PGJ2 for various time periods (0-6 h) probed with anti-p65 and anti-β-actin antibodies. […]
# [3] = tested on: Friend virus (FV)-induced erythroleukemia; assay: FV-induced erythroleukemia in FV-infected mice, intraperitoneal treatment; format: in vivo, mouse
# Text: FV-induced erythroleukemia and production of FV leukemia stem cells (FV-LSCs): BALB/c mice were infected with FV as previously described (Subramanian A et al., J Virol. 2008; 82:382-393; Harandi O F et al., J Clin Invest. 2010; 120:4507-4519). On day 14 after infection, spleens were isolated and a single cell suspension of spleen cells was generated. The cells were filtered through a 70 μm sterile filter and flow-through cells were resuspended in RBC lysis buffer followed by centrifugation. Leukemia stem cells were isolated by FACS. Spleen cells were labeled with anti-Kit, Sca1 (BioLegend, San Diego, Calif.) and M34 antibodies. M34 is a monoclonal antibody that recognizes the envelope protein of SFFV (Chesebro B et al., Virology. 1981; 112:131-144) and was used as previously described (Subramanian A et al., J Virol. 2008; 82:382-393). As indicated M34^+Kit^+Sca1^+ cells were cultured in Methocult media (Stem Cell Technologies Vancouver BC) M3334 supplemented with 200 ng/ml Sonic Hedgehog (Shh), 15 ng/ml bone morphogenetic protein-4 (BMP4) (both from R&D Systems Minneapolis, Minn.), and 50 ng/ml stem cell factor (SCF; Peprotech). For CFU-FV assays, cells were plated in methylcellulose media containing fetal calf serum, but lacking added growth factors as previously described (Mager D L et al., Proc Natl Acad Sci USA. 1981; 78:1703-1707).
# Complete blood counts of mice treated with Δ^12-PGJ3 (0.05 mg/kg) were examined. There is no difference in treated mice and untransplanted control mice in terms of white blood cell counts, red blood cell counts or platelet counts. Changes in hematological parameters in FV-infected mice upon treatment with CyPGs were examined. FV-infected Balb/c mice were treated with Δ^12-PGJ3 (0.05 mg/kg) intraperitoneally for 7 d following which the mice were sacrificed and hematological parameters were analyzed on an Advia blood analyzer. FV-infected Δ^12-PGJ3 treated mice were compared to infected vehicle controls. N=5 per group, all data are means±s.e.m. *P<0.05. 3% w/v hydroxypropyl-3-cyclodextrin was used as a vehicle in in vivo experiments. Spleen sizes of FV-infected mice that were treated with either vehicle, 9,10-dihydro-15d-PGJ2 (0.05 mg/kg), or 15d-PGJ2 (0.05 mg/kg) were examined; N=3 pre group. Hematological parameters of Balb/c uninfected, infected, and 15d-PGJ2 treated mice were examined. N=5 per group. All data were means±s.e.m. *P<0.05.
# FV-LSC were targeted by 15d-PGJ2 in the spleen of FV-infected mice. FV-infected mice were treated with 15d-PGJ2 or 9,10-dihydro-15d-PGJ2 at 0.05 mg/kg for 7 d. The splenic LSC (M34^+Sca1^+Kit^+) cells were analyzed by flow cytometry on day 14 post infection. […] Uninfected and infected vehicle controls were used for comparison. N=3; *P<0.05. […] The colonies were counted 10-14 days after plating. N=3 mice per group, *p<0.05.
# LSCs = assay: Apoptosis of LSCs as summarised in the discussion (model not specified or both models); format: cell-based, mouse
# Description: Apoptosis of LSCs was performed using annexin V as described below in Supplementary Information and Methods.
# The LSCs were diluted in DMEM, resuspended using a 16-gauge needle, and collected by centrifugation. 1×10^5 cells were resuspended in 200 μl of binding buffer (0.1 M HEPES with 1.4 M NaCl, 25 mM CaCl2, pH 7.4). Annexin V FITC (BD Biosciences) was incubated with cells for 15 min on ice followed by flow cytometric analysis.
smiles,measurement,setting,value
"CC/C=C\C[C@H](O)C/C=C1/C(=O)C=C[C@@H]1C/C=C\CCCC(=O)O [Δ^12-PGJ3, Δ^12-prostaglandin J3]",effect on normal HSCs,"[1]; Kit+Sca1+Lin−GFP+ cells from MSCV-control mice, ex vivo 36 h",no adverse effects on HSCs or downstream progenitors; also recorded: did not affect the normal HSCs
same,viability of MSCV-HSC control cells,"[1]; antagonists/inhibitor 10 nM, Δ^12-PGJ3 25 nM, 36 h",not affected
same,targeting of imatinib-resistant GFP+ LSCs,[2],can even target LSCs that are resistant to imatinib treatment
same,"NF-κB pathway, gel shift",NF-κB,did not affect the NF-κB pathway
same,reduction of splenomegaly,[3]; 0.01 mg/kg/day i.p. for 7 days,~50%
same,LSCs (Sca1+Kit+M34+) in the spleen,"[3]; 0.05 mg/kg i.p. 7 d, flow cytometry day 14 post infection",completely eradicated
same,splenomegaly,[3]; 0.05 and 0.1 mg/kg/day i.p. for 7 days from day 7 post infection,no signs of splenomegaly
same,spleen histology (H&E),[3]; day 14 post infection,better demarcation of peri-arteriolar lymphoid tissue
same,total leukocyte and reticulocyte counts,[3]; i.p. 7 days,decreased to normal levels
same,Bax expression in spleen,"[3]; mouse, in vivo",activation of Bax expression
same,Friend virus viral replication,"[3]; mouse, in vivo",not the viral replication
same,TUNEL staining of splenic sections,"[3]; mouse, in vivo",increased apoptosis
same,CFU-FV colony formation,[3]; spleen cells of treated mice plated without growth factors,completely reduced to background levels
same,p53 expression in total spleen,[3]; treated for 1 week,significant expression of p53 in the spleen
same,targeting of LSCs for apoptosis,LSCs; FV-induced leukemia and BCR-ABL+ retrovirus-based murine CML model,targeted LSCs for apoptosis
same,IC50,"LSCs; LSC type not specified, read-out: IC50, concentration required to cause apoptosis of LSCs",7 nM
